According to patent publication US20090012019A1, “Methods and Compositions Related to TR4” (priority 2005, published 2009):

What was measured:
TR4 [1] = conditions: C2C12 cells, 250 μM H2O2 for 2 h; mRNA at 4 hr, protein at 8 hr
Description: The levels of TR4 mRNA and proteins were measured by Q-PCR and Western blotting analyses.
To dissect potential molecular mechanism by which TR4 is involved in the ROS/DNA damage/DNA repair signal cascades, TR4 expression levels were examined upon exposure to genotoxic stress (such as H2O2).

TR4 [2] = assay: Stress-induced TR4 expression in wt MEF; format: cell-based, mice; conditions: wt MEF treated with cobalt chloride to mimic hypoxia stress
[3] = short acting NO donor, vendor reagent (Alexis); cited from earlier work

For `OO` [H2O2, hydrogen peroxide], the “TR4 mRNA and protein expression” value (TR4 [1]) was “increased”.

For `[Cl][Co][Cl]` [cobalt chloride], the TR4 expression (TR4 [2]) was “up-regulated”.

In the case of `Nc1n[n+](-c2ccc(Cl)c(Cl)c2)no1.[Cl-]` [GEA 3162, 1,2,3,4-oxatriazolium, 5-amino-3-(3,4-dichlorophenyl)-chloride], the halftime [3] is listed as roughly 3 min.
